The text below walks through data of US20240189343A1, “TREATMENT OF VIRUS INFECTIONS” (priority 2021, published 2024).

Counter-ions that a name gives are not always drawn. Like-named read-outs stand apart in the source and are kept apart here.

One data set concerns DENV3 (strain H87). Description: microbe, parasite or virus in culture. The class given is cell-based, dengue virus.
Data set [1] relates to DENV2 (strain New Guinea C). The experiment in a line: microbe, parasite or virus in culture. Format: cell-based, dengue virus.
Data set [2] concerns ZIKV Asian lineage (PF/13). The experiment in a line: microbe, parasite or virus in culture. Format: cell-based, Zika virus.
The subject of another data set is DENV4 (strain H241). The experiment in a line: microbe, parasite or virus in culture. The class given is cell-based, dengue virus.
The test system of data set [3] is ZIKV African lineage (Strain MP1751). The experiment in a line: microbe, parasite or virus in culture. The class given is cell-based, Zika virus.
For a further data set, the system named is YF17D. Description: microbe, parasite or virus in culture. The class given is cell-based, yellow fever virus.
A further data set deals with DENV1 (strain Hawaii). The experiment in a line: microbe, parasite or virus in culture. Format: cell-based, dengue virus.
In another data set the test system is Vero AD cells. The experiment in a line: MTT cytotoxicity on uninfected Vero AD cells (Example 1). The following applies: 600, 200, 60 μg/ml.
The test system of data set [4] is Huh-7 and HeLa Kyoto cells. The experiment in a line: MTT cytotoxicity, Example 2, cell line not specified in the statement. As to conditions: highest concentration tested (10 mg/ml); no cytotoxicity at the other concentrations.
The test system of data set [5] is Zika virus PF13. The experiment in a line: Zika virus infection of HeLa Kyoto cells, immunofluorescence infectivity readout (Example 1). Format: cell-based. As to conditions: MOI 0.5, 3 and 5, 600, 200, 60 μg/ml, 1 h pre-incubation, 48 h. The procedure: (§1) Cells were detached and counted. […] 50 μl of diluted virus or media (uninfected control) was immediately added. […] After 48 h, the plates were washed with PBS, fixed for 30 mins with 4% formaldehyde, washed again with PBS, and stored in PBS at 4° C. until staining. Cells were immunostained with immunofluorescence staining. Briefly, any residual formaldehyde was quenched with 50 mM ammonium chloride, after which cells were permeabilised (0.1% Triton X100) and stained with an antibody recognizing flavivirus envelope protein (Millipore, MAB10216). The primary antibodies were detected with an Alexa-488 conjugate secondary antibody (Life Technologies, A11001), and nuclei were stained with Hoechst. […] Normalized percentages of inhibition were calculated using the following formula: […]

A further data set deals with Huh-7 cells. The following applies: MTT, 48 h.
The subject of data set [6] is Zika virus PF13. Description: Zika virus infection of Vero AD cells, immunofluorescence infectivity readout (Example 1). Format: cell-based. As to conditions: for inhibition of Zika virus infection: Vero AD cells, MOI 0.05 and 0.01, 600, 200, 60 μg/ml, 1 h pre-incubation, 48 h. The procedure: as §1
Data set [7] deals with HeLa Kyoto cells. The experiment in a line: MTT cytotoxicity on uninfected HeLa Kyoto cells (Example 1). The following applies: 600, 200, 60 μg/ml.
The subject of data set [8] is HeLa Kyoto cells. The experiment in a line: MTT cytotoxicity in HeLa Kyoto cells (Example 2). The following applies: 48 h.
Another data set deals with rats. The following applies: cited from earlier work.
A further data set deals with Zika virus. The following applies: 200 μg/ml; Vero cells; cited from earlier work.

As usually defined, the EC50 is the concentration at which the effect is half-maximal.

Turning to `CC[C@@]1([C@@H]2O[C@@H]([C@H]3O[C@@](O)(CO)[C@H](C)C[C@@H]3C)C[C@@H]2C)CC[C@H]([C@]2(C)CC[C@]3(C[C@H](O)[C@@H](C)[C@@H]([C@@H](C)[C@@H](OC)[C@H](C)C(=O)O)O3)O2)O1` [Monensin, Monensin sodium salt, reference compound], the 50% effective concentration (EC50) with DENV3 (strain H87) (Dengue virus, DENV3, Huh-7) is 0.69 nM; in data set [1] (Dengue virus, DENV2, Huh-7), 0.88 nM; in [2] (Zika virus, HeLa Kyoto) it was 68.1 nM; with DENV4 (strain H241) (Dengue virus, DENV4, Huh-7), 2.61 nM; in data set [3] (Zika virus, HeLa Kyoto), 70.7 nM; in the data set on YF17D (Yellow fever virus, Huh-7), 6.54 nM. In the data set on DENV1 (strain Hawaii) (Dengue virus, DENV1, Huh-7), a half-maximal response (EC50) required 1.19 nM.

Take dextran sulfate [listing 1 of 3 here]: the “IC50 (inhibition of infection)” value was not above 600 µg/mL in the data set with DENV3 (strain H87); not above 600 µg/mL in [1]; “less than 0.140 mg/ml” in data set [2]; not above 600 µg/mL in the data set on DENV4 (strain H241); “less than 0.140 mg/ml” in data set [3]; “less than 0.05 mg/ml” with YF17D. Besides, the “IC50 (inhibition of infection)” value in the data set on DENV1 (strain Hawaii) is not above 600 µg/mL. In addition, the EC50 with DENV3 (strain H87) (48 h) is 30 µg/mL; in data set [1] (48 h), 120 µg/mL; in data set [2] (48 h), 140 µg/mL; in the data set with DENV4 (strain H241) (48 h), 610 µg/mL; in [3] (48 h), 60 µg/mL; in the data set with YF17D (48 h) it was 40 µg/mL. The EC50 with DENV1 (strain Hawaii) (48 h) is 290 µg/mL. Further, the “cytotoxicity (MTT)” value in the data set with Vero AD cells and with HeLa Kyoto cells [7] was “No significant cytotoxicity” throughout. Also, the “cytotoxicity (maximal)” value in data set [4] is not above 16%. The “inhibition of virus infection into human cells” value (in data set [2]; with YF17D; in the data set on DENV1 (strain Hawaii)) was more than 90% each time. Further, the “inhibition of Zika virus infection” value in the data set on Zika virus PF13 [5] was “significant and dose dependent inhibition”; with Zika virus PF13 [5] (listed as dextran sulfate) it was “inhibits Zika virus infection in human Hela cells in a concentration dependent manner”; with Zika virus PF13 [6], “significant and dose dependent inhibition”; with Zika virus PF13 [6] (listed as dextran sulfate) it was “inhibits Zika virus infection in Vero cells in a concentration dependent manner”. The TC50 in the data set on Huh-7 cells (table line Dengue virus 1 Hawaii strain (Huh-7)), with Huh-7 cells (table line Dengue virus 2 New Guinea C strain (Huh-7)), with Huh-7 cells (table line Dengue virus 3 H87 strain (Huh-7)), with Huh-7 cells (table line Dengue virus 4 H241 strain (Huh-7)), in the data set with Huh-7 cells (table line Yellow Fever virus 17D strain (Huh-7)) and in the data set on HeLa Kyoto cells [8] (table line Zika virus African strain (HeLa Kyoto)) was more than 10000 µg/mL in each case. This compound also returned a TC50 with HeLa Kyoto cells [8] (table line Zika virus Asian strain (HeLa Kyoto)) of more than 10000 µg/mL. Besides, the “% of infection inhibition” value in the data set with Zika virus PF13 [6] (200 μg/ml, Vero cells, FIG. 2A (MOI 0.05)) is reported as “more than 80%”.

dextran sulfate [listing 2 of 3 here]: in the data set on rats, the toxicity to rats entry is recorded as “highly toxic”.

On to dextran sulfate [listing 3 of 3 here], for which the “% infection inhibition” value in the data set with Zika virus is given as “about 60%”.
